Source: BindingDB's records for patent US20240116892 (Ajax Therapeutics, Inc., 2024)

Target: Tyrosine-protein kinase JAK2 [Y1007F,Y1008F] (Homo sapiens, UniProt O60674, Y1007F/Y1008F)
Experiment: JAK2 Binding Assay
Description: JAK2 (JH1 domain-catalytic, Y1007F, Y1008F) kinase was expressed as N-terminal fusion to the DNA binding domain of NFkB in transiently transfected HEK293 cells and subsequently tagged with DNA for qPCR detection. Streptavidin-coated magnetic beads were treated with biotinylated small molecule ligands for 30 minutes at room temperature to generate affinity resins for kinase assays. The liganded beads were blocked with excess biotin and washed with blocking buffer (SeaBlock (Pierce), 1% BSA, 0.05% Tween 20, 1 mmol/L DTT) to remove unbound ligand and to reduce nonspecific phage binding. Binding reactions were assembled by combining kinases, liganded affinity beads, and test compounds in 1× binding buffer (1× PBS, 0.05% Tween 20, 0.1% BSA, 1 mmol/L DTT). Test compound was prepared as 111× stocks in 100% DMSO and directly diluted into the assay wells. All reactions were performed in polypropylene 384-well plates in a final volume of 0.02 mL. The assay plates were incubated at room temperature with shaking for 1 hour and the affinity beads were washed with wash buffer (1× PBS, 0.05% Tween 20). The beads were then re-suspended in elution buffer (1× PBS, 0.05% Tween 20, 0.5 μmol/L non-biotinylated affinity ligand) and incubated at room temperature with shaking for 30 minutes. The kinase concentration in the eluate was measured by qPCR.

Chain of Tyrosine-protein kinase JAK2 [Y1007F,Y1008F] (O60674 whole entry Y1007F/Y1008F): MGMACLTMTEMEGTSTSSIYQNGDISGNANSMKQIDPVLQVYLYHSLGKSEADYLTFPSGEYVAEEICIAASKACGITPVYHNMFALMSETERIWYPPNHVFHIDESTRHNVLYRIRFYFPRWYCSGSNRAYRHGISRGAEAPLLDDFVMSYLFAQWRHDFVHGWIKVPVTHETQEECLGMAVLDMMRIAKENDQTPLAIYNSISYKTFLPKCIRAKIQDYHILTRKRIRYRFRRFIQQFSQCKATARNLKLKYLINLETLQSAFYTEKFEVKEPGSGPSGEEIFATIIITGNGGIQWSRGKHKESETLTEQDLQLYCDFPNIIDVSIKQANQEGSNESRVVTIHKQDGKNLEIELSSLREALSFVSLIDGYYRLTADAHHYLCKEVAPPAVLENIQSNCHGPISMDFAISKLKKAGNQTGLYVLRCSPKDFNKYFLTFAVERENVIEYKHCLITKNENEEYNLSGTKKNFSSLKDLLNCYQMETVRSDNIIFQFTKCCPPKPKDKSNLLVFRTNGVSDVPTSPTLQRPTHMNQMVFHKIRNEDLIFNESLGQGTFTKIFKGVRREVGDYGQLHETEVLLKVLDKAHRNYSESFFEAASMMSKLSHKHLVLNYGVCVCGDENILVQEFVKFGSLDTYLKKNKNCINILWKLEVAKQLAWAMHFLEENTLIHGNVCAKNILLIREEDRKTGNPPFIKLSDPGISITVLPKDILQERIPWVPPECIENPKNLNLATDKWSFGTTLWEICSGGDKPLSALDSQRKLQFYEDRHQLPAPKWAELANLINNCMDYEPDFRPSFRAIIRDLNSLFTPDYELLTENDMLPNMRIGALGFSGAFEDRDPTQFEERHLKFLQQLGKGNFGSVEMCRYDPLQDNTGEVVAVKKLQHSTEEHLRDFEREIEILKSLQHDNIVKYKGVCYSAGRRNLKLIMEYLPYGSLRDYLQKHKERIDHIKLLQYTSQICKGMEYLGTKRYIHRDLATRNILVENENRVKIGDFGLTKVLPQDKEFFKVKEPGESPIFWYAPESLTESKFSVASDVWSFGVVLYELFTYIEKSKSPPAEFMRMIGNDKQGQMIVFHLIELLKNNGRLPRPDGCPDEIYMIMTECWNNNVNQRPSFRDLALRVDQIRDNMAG

Compound	Kd [nM]
CN(C(=O)Nc1cc(C(F)(F)F)cn(C)c1=O)[C@@H]1CCN(c2cnc3[nH]ncc3c2)C[C@@H]1F [US20240116892, Compound I-62-b]	< 10
CN(C(=O)Nc1cc(C(F)(F)F)cn(C)c1=O)C12CC(c3cnc4[nH]ccc4c3)(C1)C2 [US20240116892, Compound I-121]	< 10
Cn1cc(C(F)(F)F)cc(NC(=O)N2CCO[C@@H]3CN(c4cnc(NC(=O)C5CC5)cn4)CC[C@H]32)c1=O [US20240116892, Compound I-148-b]	< 10
